# Test results as given in paper PMC4214760, “Host Cofactors and Pharmacologic Ligands Share an Essential Interface in HIV-1 Capsid That Is Lost upon Disassembly” (PLoS Pathogens, 2014).
# “Also recorded” adds a separate entry of the source. Like-named read-outs stand apart in the source and are kept apart here. Ends that are not written are not given here.
# Tests used:
# [1] = biological target: T1, HIV-1 CA hexamer (Human immunodeficiency virus type 1 group M subtype B, UniProt P12493, A146C/E177C/M317A/W316A); assay: biochemical; assay type: binding
# T1 construct: produced by assembly of recombinant CA containing four amino acid substitutions; made in house
# Procedure: (§1) Hexamer protein was dialysed against ITC buffer (50 mM TRIS pH 7.4, 150 mM NaCl) for experiments using intact hexamer, or ITC buffer containing 1 mM DTT for experiments with monomerized hexamer. The monomeric status of hexamer dialysed against buffer containing DTT was confirmed by size exclusion chromatography. Peptides were dissolved in the same buffer as hexamer; NUP153 peptides were first dissolved in DMSO to a concentration of 8 mM before diluting in buffer. Drugs were dissolved in DMSO to a concentration of 5 mM, before diluting in buffer. In all cases, hexamer (in the syringe) was titrated into the peptide or drug ligand (in the cell), with the exception of the competition experiments, whereby peptide (400 µM) was titrated into hexamer (30 µM) in the presence of drug (100 µM). Typical concentrations used were 600–800 µM hexamer titrated against 60–80 µM peptide unless indicated otherwise, and 200 µM hexamer titrated against 30 µM drug. ITC experiments were conducted on a MicroCal ITC-200, and data analyzed using Origin data analysis software (MicroCal).
# [2] = biological target: T2, monomeric HIV-1 CA (Human immunodeficiency virus type 1 group M subtype B, UniProt P12493, A146C/E177C/M317A/W316A); assay: ITC binding to monomeric CA (hexamer monomerized with 1 mM DTT)
# T2 construct: produced by assembly of recombinant CA containing four amino acid substitutions; made in house
# Procedure: as §1
# [3] = biological target: T1, HIV-1 CA hexamer; assay: ITC competition: cofactor peptide titrated into hexamer in the presence of drug; assay type: binding
# Procedure: as §1
# [4] = test system: VSV-G pseudotyped GFP-encoding HIV-1 vector; assay type: cell-based
# [5] = test system: HIV-1 reverse transcription; assay type: cell-based
# [6] = read-out: Kd (approximate), hexamer binding of CPSF6 and NUP153 mutant peptides, ITC, Hex 0.76-1.122 mM into peptide 0.076-0.112 mM, NB = no binding detectable
compound,measurement,setting,value
PF74,Fold higher affinity to hexamer than BI-2,[1],10 fold
same,Fold increase in affinity to hexamer compared with monomeric CA,[1],22 fold
same,"N (stoichiometry), binding to HIV-1 hexamer",[1],0.7
same,"ΔH, binding to HIV-1 hexamer",[1],-9.02 kcal/mol
same,"ΔS, binding to HIV-1 hexamer",[1],1.20 (cal/mol)/deg
same,"N (stoichiometry), binding to monomeric CA",[2],0.7
same,"ΔH, binding to monomeric CA",[2],-16.1 kcal/mol
same,"ΔS, binding to monomeric CA",[2],-29.0 (cal/mol)/deg
same,Competition with CPSF6 peptide for binding to hexamer,[3],inhibit CPSF6 binding to hexamer
same,Competition with NUP153 peptide for binding to hexamer,[3],prevent NUP153 binding to hexamer
same,Reversal of inhibition of infection on wash out,[4],completely; also recorded: partially
same,Time post-infection by which almost all efficacy was lost when addition was delayed,[4],≤ 10 h
same,Reversibility of block to reverse transcription on wash out,[5],largely irreversible
CN(C(=O)[C@H](Cc1ccccc1)NC(=O)Cc1ccoc1)c1ccccc1 [PF74_4],Fold reduction in affinity to hexamer relative to PF74,[1]; ITC,94 fold
TNNSPSGVFTAGANSST [Nup153pep F1417A],Kd,[1]; [6],> 700 µM
PVLFDGQPFGQPPLG [CPSF6pep P317D],Kd,[1]; [6],> 700 µM
TNNSPSGVATFGANSST [Nup153pep F1415A],Kd,[1]; [6],> 700 µM
PVLFPGQPAGQPPLG [CPSF6pep F321A],Kd,[1]; [6],> 700 µM
CN(C(=O)[C@H](Cc1ccccc1)NC(=O)Cc1cc[nH]c1)c1ccccc1 [PF74_3],Kd,[1],5.5 µM
same,Fold reduction in affinity to hexamer relative to PF74,[1]; ITC,46 fold
PVLFPRQPFGQPPLG [CPSF6pep G318R],Kd,[1]; [6],> 700 µM
CN(C(=O)[C@H](Cc1ccccc1)NC(=O)CC1CCOC1)c1ccccc1 (stereo partly shown) [PF74_6],Fold reduction in affinity to hexamer relative to PF74,[1]; ITC,> 1000 fold
TNNSPAGVFTFGANSST [Nup153pep S1412A],Kd,[1],~130 µM
TNNSPSGVFAFGANSST [Nup153pep T1416A],Kd,[1]; [6],> 700 µM
CN(C(=O)[C@H](Cc1ccccc1)NC(=O)Cc1ccsc1)c1ccccc1 [PF74_5],Fold reduction in affinity to hexamer relative to PF74,[1]; ITC,54 fold
